What was measured:
[1] = system: A2780cis ovarian cancer cells; test: MTT cytotoxicity assay, A2780cis; assay type: cell-based, human; conditions: 24 h treatment, cisplatin-resistant A2780cis
Description: (§1) Cytotoxicity profiles of FALP derivatives with various head groups . The in vitro anticancer activity of the Pt(IV) prodrugs (1–9) was assessed using the 3-(4,5-dimethylthiazol-2-yl)-2,5-diphenyltetrazolium bromide (MTT) assay. This study utilized two human cancer cell lines, namely A2780cis and MDA-MB-231. A2780cis is an ovarian cancer cell line known for its resistance to conventional platinum chemotherapy, making it a formidable challenge to treat. On the other hand, MDA-MB-231 represents a triple-negative breast cancer cell line, which is currently recognized as one of the difficult-to-treat cancer types. The cells were treated with 1–9 or cisplatin for 24 h, and the cell viability was evaluated. The IC50 values, which represent the concentration of the drug required to inhibit the growth of cells by 50%, are reported in the table in Figure 1B. […] Overall, the head group modifications of FALPs result in an alternation of therapeutic effects, which is a promising way to fine-tune the anticancer activity of this class of metallodrugs.
(§2) Cell culture. A2780cis cell lines were purchased from Sigma-Aldrich and cultured in RPMI 1640 with L-glutamine (Corning, New York, NY, USA) supplemented with 10% FBS (Atlanta Biologicals, USA) and 1% penicillin-streptomycin (Corning). The MDA-MB-231 cell line was obtained via American Type Culture Collection, and cultured in DMEM 1 g/L glucose, with L-glutamine and sodium pyruvate (Corning) supplemented with 10% FBS and 1% penicillin-streptomycin (Corning). All cell lines were cultured at 37 °C under an atmosphere containing 5% CO2. Cells were passaged upon reaching 80–90% confluence via trypsinization and split in a 1:5 ratio.
(§3) MTT assays. Cytotoxicity profiles of compounds 1–9 and cisplatin against different cell lines (A2780cis and MDA-MB-231) were evaluated using the MTT assays. A volume of 100 μL of a RPMI or DMEM containing 8 × 10^4 cells/mL was seeded in 96-well plates. The plates were incubated for 24 h at 37 °C with 5% CO2 to allow for adherence of cells. A volume of 50 μL of RPMI or DMEM with various concentrations of cisplatin or compounds 1–9 were added to each well of the microplates. The Pt concentrations were determined via GFAAS. After 24 h, a volume of 30 μL of MTT (5.0 mg/mL in PBS, Alfa Aesar, Haverhill, MA, USA) was added to each well of the microplates. After 24 h, the medium was aspirated, and 200 μL of DMSO was added to each well. The plates were shaken gently on a shaker at r.t. for 10 min. Then, the absorbance of purple formazan was recorded at 562 nm with a BioTek ELx800 plate reader. IC50 values were determined using Origin software v7.0. All experiments were performed in triplicate.

[2] = system: MDA-MB-231 breast cancer cells; test: MTT cytotoxicity assay, MDA-MB-231; assay type: cell-based, human; conditions: 24 h treatment, triple-negative MDA-MB-231
Description: as §1, §2, §3

[3] = system: mitochondrial ROS in A2780cis cells; test: Flow cytometric analysis of MitoSOX (mitochondrial ROS); assay type: cell-based, human; conditions: [Pt] = 10 μM, 24 h, control 41.1%
Description: (§4) Cellular Responses of FALP derivatives with head groups of different hydrophobicity. Based on the observation that hydrophilic head group modifications lead to increased intracellular Pt levels, we formulated the hypothesis that such modifications would result in greater mitochondrial and DNA damage, as well as increased apoptosis. MitoSOX was utilized to assess the levels of mitochondrial ROS, while the γH2AX levels were analyzed to determine DNA damage. As mitochondrial and DNA damage are known to promote apoptosis, Annexin V/PI assays were also conducted to examine the apoptotic effects. A flow cytometric analysis was used to evaluate the mitochondrial ROS, γH2AX, and apoptosis in the cancer cells treated with FALPs (2 and 7) in the experiments. […] Based on the results, it can be inferred that the FALP derivative (2) with a hydrophilic head group modification induces mitochondrial and DNA damage as well as apoptosis more effectively than the one (7) with a hydrophobic modification.
Flow cytometric analysis of MitoSOX. A2780cis cells were seeded in 6-well plate at a concentration of 6 × 10^4 cells/mL and incubated overnight. […] The cells were then re-suspended in PBS with 0.5% BSA to reach 10^6 cells/mL and analyzed with BD Accuri C6 flow cytometer using FL-2 channel, and data were processed with FlowJo v10.

[4] = GFAAS analysis of Log P values (H2O:octanol); assay type: physicochemical; conditions: H2O:octanol 1:1, Pt content of each phase by GFAAS; whole compound
Description: The samples were first dissolved with DMSO to create 200 µM stocks. From these stocks, 50 µL was added to a H2O:Octanol mixture with a 1:1 volume ratio. This mixture was vortexed for 5 min and subsequently centrifuged for 3 min at 3000 rpm. Following centrifugation, the H2O and octanol layers were isolated for analysis. The Pt content in each phase was quantified using GFAAS to calculate the Log P value.

A2780cis cells [5] = test: GFAAS analysis of cellular platinum contents; assay type: cell-based, human; conditions: [Pt] = 1 μM, 24 h
Excerpt: (§5) Cell entry and mitochondrial accumulation of FALP derivatives with head groups of different hydrophobicities. Our next objective was to gain a more detailed understanding of how modifications to the head group of FALPs affect their anticancer activities through hydrophobicity. Cellular uptake is widely recognized as a critical factor in the activity of metallodrugs. The influence of hydrophobicity on the cellular uptake of therapeutic molecules has been widely acknowledged, with an increase in hydrophobicity typically promoting cell entry. To this end, we conducted a graphite furnace atomic absorption spectroscopic (GFAAS) analysis of the cellular uptake for FALPs with various head group modifications, including 2 and 7. […] We previously discovered that mitochondria play significant roles in the mechanism of action of FALPs, so we further investigated how the hydrophobicity of the head group modifications affects the mitochondrial accumulation of FALPs. […] In summary, the introduction of a hydrophilic head group in FALPs promotes cell entry and mitochondrial accumulation.
GFAAS analysis of cellular platinum contents in A2780cis cells. […] The remaining live cells were harvested via trypsinization and counted. […] The Pt contents in the cells were analyzed via GFAAS. […]

[6] = system: mitochondria of A2780cis cells; test: Measurement of mitochondrial platinum contents; assay type: cell-based, human; conditions: [Pt] = 1 μM, 24 h, isolated mitochondria, GFAAS
Excerpt: as §5
Measurements of mitochondrial platinum contents in A2780cis cells. […] Next, the wells were washed with PBS (1 mL) and harvested via trypsinization (1 mL) and counted. […] Next, the fractions were diluted 4× in water and the platinum content was analyzed using GFAAS. […]

A2780cis cells [7] = test: Flow cytometric analysis of apoptosis (Annexin V/PI); assay type: cell-based, human; conditions: [Pt] = 0.5 μM, 48 h
Description: as §4
Flow cytometric analysis of apoptosis. A2780cis cells were seeded in a 6-well plate at a concentration of 3 × 10^5 cells/well. Cells were then incubated at 37 °C 5% CO2 for 24 h. […] Both live and dead cells were collected, resuspended in 1mL PBS, and counted. […] Cells were then analyzed with FL-1 and FL-3 channels on a BD Accuri C6 flow cytometer and data were processed with FlowJo.

A2780cis cells [8] = test: LIVE/DEAD cell viability imaging assay; assay type: cell-based, human; conditions: [Pt] = 1 μM, 24 h
Description: LIVE/DEAD cell viability assays. […] Before the assay, the cells were washed with 1 mL PBS and 1 mL dye-free RPMI to remove serum esterase activity that is generally present in serum-supplemented growth media. A 100 μL volume of LIVE/DEAD working solution (formed by mixing 2 µM of calcein AM and 2 μM ethidium homodimer-1 in PBS) was carefully added to the disk, which was then incubated at r.t. for 30 min. Images were acquired using an Olympus IX70 inverted epifluorescence microscope equipped with a digital CCD camera (QImaging, Surrey, BC, Canada). Images were processed, and intensities were quantified with ImageJ software (NIH).

Row | SMILES | IC50 [1] | IC50 [2] | MitoSOX (mitochondrial ROS, flow cytometry) [3] | Log P determined via GFAAS [4] | Cellular uptake (cellular Pt content) (A2780cis cells [5]) | Mitochondrial Pt content [6] | Apoptosis, Annexin V/PI plot, upper right quadrant (late stages of apoptosis) (A2780cis cells [7]) | Live/dead cell imaging result (A2780cis cells [8])
1 | N.N.[Cl][Pt][Cl] [Cisplatin, cisplatin, reference compound] | 109 ± 13.5 µM | 92 ± 8 µM | insignificant change | – | – | – | – | –
2 | CCCCCCCCCCCCCCCCNC(=O)[O][Pt]([Cl])([Cl])[O]C(=O)CCC(=O)O.N.N [Compound 1] | 1 ± 0.06 µM | 6.3 ± 0.4 µM | – | – | – | – | – | –
3 | CCCCCCCCCCCCCCCCNC(=O)[O][Pt]([NH2])([NH2])([Cl])([Cl])[O]C(=O)CCC(=O)NCCOCCO [Compound 2] | 0.3 ± 0.06 µM | 0.76 ± 0.03 µM | – | 1.97 | 496.6 ± 16.09 pmol Pt/million cells | 31.7 ± 5.1 pmol Pt/million cells | 23.3% | effectively eliminated all drug-resistant A2780cis ovarian cancer cells
4 | CCCCCCCCCCCCCCCCNC(=O)[O][Pt]([NH2])([NH2])([Cl])([Cl])[O]C(=O)CCC(=O)NCCOC [Compound 3] | 0.7 ± 0.04 µM | 1.9 ± 0.3 µM | – | – | – | – | – | –
5 | CCCCCCCCCCCCCCCCNC(=O)[O][Pt]([NH2])([NH2])([Cl])([Cl])[O]C(=O)CCC(=O)NCC#N [Compound 4] | 0.41 ± 0.05 µM | 1.63 ± 0.12 µM | – | – | – | – | – | –
6 | CCCCCCCCCCCCCCCCNC(=O)[O][Pt]([NH2])([NH2])([Cl])([Cl])[O]C(=O)CCC(=O)NCC(=O)OCC [Compound 5] | 0.39 ± 0.08 µM | 5.22 ± 1.03 µM | – | – | – | – | – | –
7 | CCCCCCCCCCCCCCCCNC(=O)[O][Pt]([NH2])([NH2])([Cl])([Cl])[O]C(=O)CCC(=O)NCCC [Compound 6] | 1.12 ± 0.07 µM | 1.5 ± 0.4 µM | – | – | – | – | – | –
8 | CCCCCCCCCCCCCCCCNC(=O)[O][Pt]([NH2])([NH2])([Cl])([Cl])[O]C(=O)CCC(=O)NCCCCCC [Compound 7] | 3.75 ± 0.47 µM | 7.05 ± 0.8 µM | – | 2.57 | 60.03 ± 8.01 pmol Pt/million cells | 11.72 ± 2.76 pmol Pt/million cells | 3.58% | ineffective
9 | CCCCCCCCCCCCCCCCNC(=O)[O][Pt]([NH2])([NH2])([Cl])([Cl])[O]C(=O)CCC(=O)NC12CC3CC(CC(C3)C1)C2 [Compound 8] | 5.07 ± 0.71 µM | 6.09 ± 0.3 µM | – | – | – | – | – | –
10 | CCCCCCCCCCCCCCCCNC(=O)CCC(=O)[O][Pt]([NH2])([NH2])([Cl])([Cl])[O]C(=O)NCC(=O)OCC [Compound 9] | 0.4 ± 0.01 µM | 1.42 ± 0.07 µM | – | – | – | – | – | –

Source: publication PMC10487970, “Exploring the Impact of Head Group Modifications on the Anticancer Activities of Fatty-Acid-like Platinum(IV) Prodrugs: A Structure–Activity Relationship Study” (International Journal of Molecular Sciences, 2023)
